Experimental data reported in patent US20160038454A1, “INTRAVENOUS FORMULATIONS OF […] AS IMMUNOMODULATORS AND […] AGENTS” (priority 2013, published 2016).
≈ marks a conversion by molar mass, not a printed value. Entries after “also recorded” stand apart in the source; their conditions may differ.

Columns and labels:
[1] = tested on: IL-2 production by Jurkat cells; test: cells; type: cell-based, human
Procedure: Test samples can be diluted to 1 mM in complete tissue culture medium. Aliquots are placed in microculture plates coated with anti-CD3 antibody (used to stimulate the production of IL-2 by Jurkat cells), and serial dilutions are prepared so that the final concentration encompass the range of 0.001 to 10,000 nM in log increments. Cells from an exponentially expanding culture of Jurkat human T cell line (#TIB-152 obtained from American Type Culture Collection, Manassas, Va.) are harvested, washed once by centrifugation, re-suspended in complete tissue culture medium, and diluted to a concentration of 2×10^6 cells/ml. A volume of 50 μl of Jurkat cells (1×10^5 cells) is added to wells containing 100 μl of the diluted compounds, 50 μl of PMA (10 ng/ml) is added to each well, and the plates are incubated at 37° C. in a 5% CO2 incubator. After 24 hours, the plates are centrifuged to pellet the cells, 150 μl of supernatant is removed from each well, and the samples are stored at −20° C. The stored supernatants are analyzed for human IL-2 concentration using the Luminex 100 (Luminex Corporation, Austin, Tex.), Luminex microspheres coupled with anti-IL-2 capture antibody, and fluorochrome-coupled anti-IL-2 detection antibody. The data are expressed as pg/ml of IL-2.

[2] = tested on: human T cell lymphoma (Jurkat) cells; test: in vitro; type: cell-based
Procedure: Test compounds may be dissolved in DMSO at a concentration of 20 mM. Further dilutions may be done in RPMI1640 medium (GIBCO, Rockville, Md.) supplemented with 10% Fetal Calf Serum (HyClone Laboratories, Logan, Utah).
Cytotoxicity of the compounds is determined in a standard MTT assay using Cell Proliferation Kit I (#1 465 007, Roche Diagnostics, Mannheim, Germany). Briefly, human T cell lymphoma (Jurkat) cells (4×10^5 per well) are cultured for 24 h, in 96-well tissue culture plates, in the presence of serial three-fold dilutions of test compounds or medium containing the same concentration of DMSO as in the test samples at each dilution point. The cultures are then supplemented with 10 μl/well MTT reagent for 4 h and then with 0.1 ml/well solubilizing reagent for an additional 16 h. Optical density at 570 nm (OD570) is measured on a ThermoScan microplate reader (Molecular Devices, Menlo Park, Calif.).

rodents = test: Rodent toxicology study, intravenous, seven days; type: in vivo
Procedure: (§1) Triptolide prodrugs are generally believed to be safer than triptolide. […] Triptolide prodrugs as an emulsion formulation are believed to have a toxicokinetic profile characterized by a flat AUC with a minimized Cmax. [In conjunction, it was postulated that a sustained inhibition of RNA polymerase is needed for optimum efficacy which in turn requires a pharmcokinetic profile of constant exposure to drug]. […] The no effect dose (“NOAEL”) of PG796(MRx102) again exceeded 1.5 mg/kg/day intravenously for seven days in rodents confirming the initial results. It is interesting to ask why a prodrug of triptolide would be safer than the natural product itself; while not wishing to be bound by theory, perhaps the answer lies in the pharmacokinetic profile of triptolide administered either directly or released from its carrier, PG796(MRx102). […] It also remained above the therapeutic levels (shown as a thick line without symbols). The difference in the Cmax/AUC profile of PG796(MRx102) vs. triptolide is believed to be due to the physiochemical properties of the lipid prodrug/emulsion formulation combination. In general, triptolide prodrugs having a cLogP greater than 0.5 are more lipid-soluble than water soluble and are expected to take longer to convert to the drug form; such characteristics may yield a flatter conversion profile and less of a drug-release Cmax spike.

[3] = Rodent toxicology study, intravenous, seven days; type: in vivo, rodents; conditions: in vivo, iv; intravenously for seven days in rodents; read-out: no effect dose (NOAEL)
Procedure: as §1

[4] = PG796(MRx102) solubility in emulsion formulations; type: physicochemical; conditions: emulsion formulation, aqueous with cosolvent or surfactant or cyclodextrin
Procedure: Various ratios of the nonionic surfactants polysorbate 80 (a.k.a. Tween 80) and Span 80 were explored, and a formulation was prepared and tested as follows. […] The results of this preliminary experiment were encouraging in that a reasonably high solubility was obtained in a formulation containing almost 70% water.
Emulsion formulations were prepared using a probe sonicator to disperse the oil phase in the aqueous phase to form a creamy opaque suspension.
Typical emulsion formulations consist of 10-30% triglyceride, most commonly SBO, dispersed with 0.5-2% phospholipids in an aqueous phase, which contains glycerin as a tonicity agent. […] Additionally, PEG-400 and ethanol were incorporated into some of the formulations to decrease the polarity of the aqueous phase to enhance solubility. Sodium cholate was included in some formulations as a co-surfactant. Solubility of at least 1 mg/mL was obtained in all of the formulations. In each case some loss of potency was observed after eight days of storage, but the majority of the original potency was maintained.
Pharmaceutical emulsions are typically prepared at neutral to slightly alkaline pH since they are stabilized by electrostatic repulsion between droplets imparted by pH-sensitive anionic surfactants, such as phosphatidyl ethanolamine, free fatty acid salts, and cholate. However, it was possible that this pH range could be suboptimal for the chemical stability of PG796(MRx102). To test this, emulsions were prepared at different pH values ranging from 4 to 8. Buffers were included to control the pH, and the non-pH sensitive surfactant, sodium dodecyl sulfate was used in place of sodium cholate to assure a negative charge even in the low pH emulsions. All of the formulations were reasonably stable for up to 2 weeks at room temperature. […]

[5] = Conversion to triptolide using human serum; type: in vitro ADME
Source text: (Xia Zhi Lin and Zhen You Lan, Haematologica, 93:14 (2008)).

[6] = tested on: bulk, CD34(+) progenitor and CD34(+)CD38(−) stem/progenitor cells from AML patients; conditions: low nanomolar concentrations; also in coculture with mesenchymal stromal cells; Carter et al. 2012; cited from earlier work
[7] = Jurkat cells, comparison with triptolide or PG490-88
[8] = incubated in human serum compared with mouse serum
[9] = emulsion target pH 4.0 (acetate)
[10] = emulsion target pH 5.0 (acetate)
[11] = emulsion target pH 6.0 (histidine)
[12] = emulsion target pH 7.0 (phosphate)

With CC(C)[C@]12O[C@H]1[C@@H]1O[C@]13[C@]1(O[C@H]1C[C@H]1c4c(C(=O)c5ccccc5)oc(OC(=O)c5ccccc5)c4CC[C@@]13C)[C@@H]2O [PG796, 18-deoxo-19-dehydro-18-benzoyloxy-19-benzoyl triptolide] the “IL-2 inhibition (in words)” value [1, 7] was “inhibited IL-2 production; also recorded: higher level of activity”, the “activity in IL-2 inhibition assay after incubation in human serum vs mouse serum” value [1, 8] was “high, and essentially equivalent, activity” and the “cytotoxic activity in MTT assay (in words)” value [2, 7] was “cytotoxic; also recorded: higher level of activity”. For the same molecule, the “activity in MTT assay after incubation in human serum vs mouse serum” value [2, 8] was “high, and essentially equivalent, activity”, the “gross or histopathologic toxic effects” value (rodents; intravenous doses up to 1.5 mg/kg/day for seven days, initial rodent toxicology study) was “no gross or histopathologic toxic effects” and the “toxicity relative to triptolide (times less toxic)” value (rodents; intravenous, emulsion formulation, rodents, gross and histopathologic criteria) was “at least 20 times”. For the same molecule, the NOAEL at 7 days [3] was over 1.5 mg/kg/day, the solubility at 0 hr [4, 9] was 870 µg/mL (≈ 1530 µM) and the solubility at 1 wk [4, 9] was 1000 µg/mL (≈ 1760 µM). The solubility at 2 wk [4, 9] was 848 µg/mL (≈ 1490 µM), the solubility at 24 hr [4, 9] was 917 µg/mL (≈ 1610 µM) and the solubility at 0 hr [4, 10] was 1010 µg/mL (≈ 1770 µM). For the same molecule, the solubility at 1 wk [4, 10] was 972 µg/mL (≈ 1710 µM), the solubility at 2 wk [4, 10] was 910 µg/mL (≈ 1600 µM) and the solubility at 24 hr [4, 10] was 922 µg/mL (≈ 1620 µM). It also gave a solubility at 0 hr [4, 11] of 1090 µg/mL (≈ 1920 µM), a solubility at 1 wk [4, 11] of 948 µg/mL (≈ 1670 µM) and a solubility at 2 wk [4, 11] of 850 µg/mL (≈ 1490 µM). For the same molecule, the solubility at 24 hr [4, 11] was 890 µg/mL (≈ 1570 µM), the solubility at 0 hr [4, 12] was 996 µg/mL (≈ 1750 µM) and the solubility at 1 wk [4, 12] was 760 µg/mL (≈ 1340 µM). For the same molecule, the solubility at 2 wk [4, 12] was 822 µg/mL (≈ 1450 µM), the solubility at 24 hr [4, 12] was 849 µg/mL (≈ 1490 µM) and the solubility at 0 hr ([4]; emulsion target pH 8.0 (Tris)) was 929 µg/mL (≈ 1630 µM). It also gave a solubility at 1 wk ([4]; emulsion target pH 8.0 (Tris)) of 1040 µg/mL (≈ 1830 µM), a solubility at 2 wk ([4]; emulsion target pH 8.0 (Tris)) of 930 µg/mL (≈ 1640 µM) and a solubility at 24 hr ([4]; emulsion target pH 8.0 (Tris)) of 929 µg/mL (≈ 1630 µM). The solubility ([4]; preliminary emulsion: 29.4% GTO, 1.65% Span 80, 0.31% Tween 80, 68.6% water) was 681 µg/mL (≈ 1200 µM), the “conversion to triptolide in human serum” value [5] was “rapidly and completely converted” and the “apoptosis in cells from AML patients” value [6] was “induced apoptosis”.
